Test results from patent US20240343906A1, “POLOXAMER-STABILIZED REAGENTS” (Promega Corporation, priority 2023, published 2024).

Legend:
[1] = Reconstitution of lyophilized P-407 formulated cakes in 100 μL DPBS (visual appearance); type: physicochemical; conditions: 100 nmols ligand, 100 μL DPBS (JF-552: after 4 h)
Protocol: The 1 μmol JF Dye HaloTag Ligand (JF-669 or JF-552) was dissolved in ca. 3.5 mL EtOH, followed by transferring the resulting solution to the melted P-407. The resulting mixture was rotated at ca. 65° C. to afford a homogeneous solution. […]

[2] = Solubility analysis: clarity by optical density at 850 nm (OD850) after reconstitution; type: physicochemical; conditions: lyophilized, reconstituted in DPBS pH 7.0, 1 mM
Protocol: FIG. 4. Solubility of dye-chloroalkyl ligand conjugates following lyophilization in the presence of various excipients and reconstitution in DPBS pH 7.0.
Vials of lyophilized Chloroalkyl-JANELIA FLUOR 552 (CA-JF 552) and Chloroalkyl-JANELIA FLUOR 669 (CA-JF 669) formulated prior to lyophilization with various excipients were separately dissolved in 100 μL aqueous buffer to a final 1 mM concentration. 70 μl of the CA-JF 552 and CA-JF 669 solutions were then transferred to wells of a transparent 96-well plate for clarity analysis using Optical Density absorbance measurements at 850 nm [Bandwidth 3.5 nm] (OD850) on Tecan Spark plate reader (FIGS. 4 and 5). Target absorbance limit for clarity measurements was determined using a known turbidity sample of material similarly formulated with poloxamer to assess solubility of the ligand.
A clarity target of <0.1 was utilized.

For `C[Si]1(C)C2=CC(=[N+]3CCC3)C=CC2=C(c2c(F)c(C(=O)NCCOCCOCCCCCCCl)c(F)c(F)c2C(=O)[O-])c2ccc(N3CCC3)cc21` [JF-669, Chloroalkyl-JANELIA FLUOR 669], the appearance after reconstitution ([1]; 3-mg-P407 formulation) was “hazy suspension”, the appearance after reconstitution ([1]; 9-mg-P407 formulation) was “clear solution” and the “clarity (OD850) versus clarity target <0.1” value ([2]; excipient cyclodextrin) was “unable to hit clarity target”. For the same compound, the “clarity (OD850) versus clarity target <0.1” value ([2]; excipient pullulan) was “unable to hit clarity target”.
For Chloroalkyl-JANELIA FLUOR 552 [JF-552], the appearance after reconstitution ([1]; 3-mg-P407 formulation) was “hazy suspension”, the appearance after reconstitution ([1]; 9-mg-P407 formulation) was “clear solution” and the “clarity (OD850) versus clarity target <0.1” value ([2]; excipient cyclodextrin) was “unable to hit clarity target”. The “clarity (OD850) versus clarity target <0.1” value ([2]; excipient pullulan) was “unable to hit clarity target”.
